Experimental findings from patent US7566733B2, “Benzimidazole derivatives useful as selective androgen receptor modulators (sarms)” (priority 2004, dated 2009) are described below.

The test system of experiment [1] is castrated male Sprague Dawley rats. Description: Ventral Prostate and Levator Ani Weight In Vivo Assay. Also on record: key: active: greater than or equal to 25% stimulation of levator ani at 30 mg/kg. Particulars: mature castrated rats, once daily for 14 days, oral gavage, 30 mg/kg. How it is done:
Ventral Prostate and Levator Ani Weight In Vivo Assay
Mature (150 to 200 g) castrated male Sprague Dawley rats (Charles River) were treated once daily for 14 days with test compound (usually administered by oral gavage at up to the desired dosage, up to 30 mg/kg in a volume of 1 mL, in 30% cyclodextrin or 0.5% methylcellulose vehicle), or with testosterone propionate (administered subcutaneously by injection at the nape of the neck at 5 mg/kg, in a volume of 0.1 mL in sesame oil), or with vehicle (1 mL of 30% cyclodextrin or 0.5% methylcellulose, given orally). On the fifteenth day, the rats were euthanized by asphyxiation in carbon dioxide. Ventral prostates and levator ani muscles were removed and their wet weights determined.
Test compound activity was determined as the percent stimulation of tissue weight, with the vehicle-treated control group set to zero percent and the testosterone alone-treated control group set to 100%. A compound was designated as “active” if it produced greater than or equal to 25% stimulation of levator ani at 30 mg/kg.

Experiment [2] shares this test system. Description: Ventral Prostate and Seminal Vesicle Weight In Vivo Assay. Further: key: active: the non weight adjusted prostate weight was ≦40 mg or the % Inhibition prostate weight, body weight adjusted was ≧40%@2 mg/day dosage; inactive: did not meet the specified criteria defined above. The settings on record: inhibition of testosterone-enhanced prostate weight; immature castrated rats, once daily for five days, usually orally 40 mg/kg, with testosterone propionate 2 mg/kg s.c.

As for `CC(O)(CC#N)c1nc2cc(Cl)c(Cl)cc2[nH]1` (centres unmarked) [Compound 7, 3-(5,6-dichloro-1H-benzoimidazol-2-yl)-3-hydroxy-butyronitrile], the “Activity (percent stimulation of levator ani weight)” value in experiment [1] is given as “active”. Further, in experiment [2], the result was active.
